From patent US9795679B2, “Biodegradable compositions suitable for controlled release” (INGELL TECHNOLOGIES HOLDING B.V., priority 2011, dated 2017)
Values after ≈ are worked out from the molar mass of the structure shown.

Assay: Celecoxib solubility in PBS with Tween 80
Assay type: physicochemical
Conditions: PBS with 0.2% Tween 80, aqueous with cosolvent or surfactant or cyclodextrin

solubility: 100 to 200 µg/mL (≈ 262 to 524 µM)
SMILES: Cc1ccc(-c2cc(C(F)(F)F)nn2-c2ccc(S(N)(=O)=O)cc2)cc1 [celecoxib]
